How the values were obtained:
[1] = tested on: Valley Fever (coccidioidomycosis); conditions: mouse, in vivo; cited from earlier work

SMILES: C[C@@H]([C@H](N)C(=O)N[C@H](C(=O)O)[C@H]1O[C@@H](n2ccc(=O)[nH]c2=O)[C@H](O)[C@@H]1O)[C@H](O)c1ccc(O)cn1 [Nikkomycin Z]
- stability of broth at pH 4: reasonably stable for at least a week
- effectiveness at treating infected animals [1]: quite effective at treating infected animals
